Laboratory results as given in US8314215B2, “Mild chemically cleavable linker system” (The Board of Trustees of the Leland Stanford Junior …, priority 2006, dated 2012).

Key:
[1] = Cleavage of probe by incubation with Na2S2O4, LC-MS analysis; type: physicochemical; conditions: 100 mM Na2S2O4, after 30 minutes
Experimental: We initially tested the cleavage of SV1 (shown in FIG. 3) by incubation with 100 mM Na2S2O4. After 30 minutes full cleavage of SV1 into the two aniline fragments 3 and 4 (FIG. 3) was observed using LC-MS analysis.

Cathepsin B = target: T1, Cathepsin B (Rattus norvegicus, UniProt P00787); test: Proteases targeted by SV1 after chemoselective release from immobilized streptavidin, LC-MS/MS; type: biochemical; conditions: rat liver homogenate, SV1 10 μM 2 h
T1 construct: from tissue; host or cells: rat liver homogenate
T1 sequence (P00787 80-333): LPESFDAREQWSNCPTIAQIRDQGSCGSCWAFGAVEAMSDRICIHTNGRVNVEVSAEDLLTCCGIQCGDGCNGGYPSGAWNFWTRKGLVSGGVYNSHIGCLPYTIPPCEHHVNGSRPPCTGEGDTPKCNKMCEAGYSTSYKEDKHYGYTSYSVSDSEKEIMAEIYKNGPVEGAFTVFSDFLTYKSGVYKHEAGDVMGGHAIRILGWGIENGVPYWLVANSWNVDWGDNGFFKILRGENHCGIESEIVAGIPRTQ
Experimental: (§1) Rat liver homogenate (20 mg of total protein) in reaction buffer was incubated with SV1 (10 μM) for 2 h. Unreacted probe was removed by filtration over a PD10 column (Amersham Bioscience) and the eluate (in PBS buffer) was shaken with immobilized streptavidin slurry (20 μL) for 1 h. The streptavidin beads were subsequently washed with PBS buffer containing 1M NaCl, 0.1% SDS and 10% EtOH (3× each). Proteases labeled by the probe were cleaved off with Na2S2O4 using the above-described procedure. The pooled supernatant was denatured by incubating with 1 volume of 12 M urea. Next, disulfide bonds were reduced with DTT (10 mM, 60 minutes) and free cysteines were capped with iodoacetamide (40 mM, 60 minutes). Unreacted iodoacetamide was neutralized by addition of an equal amount of DTT and the concentration of urea was lowered to 2 M by addition of water. Trypsin digestion was performed overnight at 37° C. (0.1 μg of trypsin). Digestion was stopped by addition of formic acid (5% final concentration) and digested samples were desalted using a C18 Zip-Tip (Millipore) prior to LC/MS-MS analysis. Data was analyzed by the Sequest algorithm (Novatia) and evaluated by Scaffold (Proteome Software Inc.). Peptides with probability value>95% (in Scaffold) were considered positive hits.
(§2) Although the optimized release of probe-labeled proteins from streptavidin using dithionite is slightly lower in efficiency than under denaturing conditions, this method is likely to result in less background signals leading to easier identification of the target proteases. In addition the direct on-bead cleavage method using a mass spectrometry-compatible buffer allows direct in solution digestion of samples followed by MS analysis. To confirm these issues we analyzed the samples in FIG. 2 by direct solution digestion with trypsin followed by LC-MS/MS analysis of all peptide products. This analysis identified multiple peptides from each of the expected cathepsin proteases without any contamination by background proteins (Table 1). […] A more comprehensive and detailed analysis is reported in Fonović et al., Proteomic evaluation of chemically cleavable activity based probes,” Mol. and Cell Proteomics Manuscript M700-124-MCP200 (published online Jul. 5, 2007).

Cathepsin C = target: T2, Cathepsin C (Rattus norvegicus, UniProt P80067); test: as above; type: biochemical; conditions: rat liver homogenate, SV1 10 μM 2 h
T2 construct: from tissue; host or cells: rat liver homogenate
T2 sequence (P80067 25-462): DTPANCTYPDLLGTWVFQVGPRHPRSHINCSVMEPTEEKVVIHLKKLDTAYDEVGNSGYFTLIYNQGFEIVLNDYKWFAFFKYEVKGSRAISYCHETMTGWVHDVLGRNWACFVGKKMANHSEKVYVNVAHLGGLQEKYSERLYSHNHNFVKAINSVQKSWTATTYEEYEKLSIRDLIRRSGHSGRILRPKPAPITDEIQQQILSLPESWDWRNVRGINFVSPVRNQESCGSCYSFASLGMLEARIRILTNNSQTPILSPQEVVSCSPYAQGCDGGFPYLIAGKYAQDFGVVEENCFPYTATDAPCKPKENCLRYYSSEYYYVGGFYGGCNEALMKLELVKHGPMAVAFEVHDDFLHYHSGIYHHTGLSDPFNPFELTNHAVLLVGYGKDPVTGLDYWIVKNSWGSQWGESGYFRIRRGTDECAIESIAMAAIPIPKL
Experimental: as §1, §2

Cathepsin H = target: T3, Cathepsin H (Rattus norvegicus, UniProt P00786); test: as above; type: biochemical; conditions: rat liver homogenate, SV1 10 μM 2 h
T3 construct: from tissue; host or cells: rat liver homogenate
T3 sequence (P00786 96-333): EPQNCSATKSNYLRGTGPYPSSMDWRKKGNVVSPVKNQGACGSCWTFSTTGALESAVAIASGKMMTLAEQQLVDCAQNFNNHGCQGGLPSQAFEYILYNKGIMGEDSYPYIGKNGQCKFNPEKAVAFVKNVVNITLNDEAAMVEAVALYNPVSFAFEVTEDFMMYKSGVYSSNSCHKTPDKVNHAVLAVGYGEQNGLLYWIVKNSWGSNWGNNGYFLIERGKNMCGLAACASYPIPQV
Experimental: as §1, §2

Cathepsin Z = target: T4, Cathepsin Z (Rattus norvegicus, UniProt Q9R1T3); test: as above; type: biochemical; conditions: rat liver homogenate, SV1 10 μM 2 h
T4 construct: from tissue; host or cells: rat liver homogenate
T4 sequence (Q9R1T3 64-306): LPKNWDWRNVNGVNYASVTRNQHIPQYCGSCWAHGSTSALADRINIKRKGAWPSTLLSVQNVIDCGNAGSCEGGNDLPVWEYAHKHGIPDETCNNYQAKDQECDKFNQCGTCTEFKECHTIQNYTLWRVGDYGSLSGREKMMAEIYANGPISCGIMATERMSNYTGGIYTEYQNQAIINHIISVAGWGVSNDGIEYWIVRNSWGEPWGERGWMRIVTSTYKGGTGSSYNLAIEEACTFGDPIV
Experimental: as §1, §2

CCOC(=O)[C@H]1O[C@@H]1C(=O)N[C@@H](CC(C)C)C(=O)N[C@@H](Cc1ccc(O)cc1)C(=O)NCCc1ccc(O)c(N=Nc2ccc(C(=O)N[C@@H](CCCCNC(=O)CCCC[C@@H]3SC[C@@H]4NC(=O)N[C@@H]43)C(N)=O)cc2)c1 [SV1]
cleavage into the two aniline fragments 3 and 4 [1]: full cleavage | Number of Identified peptides (Cathepsin B): 2 | Sequence coverage (Cathepsin B): 8% | Number of Identified peptides (Cathepsin C): 3 | Sequence coverage (Cathepsin C): 16% | Number of Identified peptides (Cathepsin H): 5 | Sequence coverage (Cathepsin H): 29% | Number of Identified peptides (Cathepsin Z): 4 | Sequence coverage (Cathepsin Z): 32%
